pIC50: −log10 of the molar value.
Assays:
Transcription factor AP1 [1] = molecular target: T1, Transcription factor AP1 (Homo sapiens, UniProt P01100+P05412); assay: (§1) Inhibitory activity on AP1 using ELISA based AP1 DNA binding; format: protein-complex assay
Transcription factor AP1 [2] = molecular target: T2, Transcription factor AP1 (Homo sapiens, UniProt P05412+P01100); assay: Inhibitory activity on AP1 DNA-binding at 1 mM; format: protein-complex assay
Transcription factor AP1 [3] = molecular target: T2, Transcription factor AP1; assay: Inhibitory activity on AP1 DNA-binding at 500 uM; format: protein-complex assay
Transcription factor AP1 [4] = molecular target: T2, Transcription factor AP1; assay: as §1; format: protein-complex assay
Transcription factor AP1 [5] = molecular target: T2, Transcription factor AP1; assay: (§2) Inhibition of the expression of AP1-luciferase by TPA-stimulated NIH3T3 cells; format: cell-based; details: nih3t3
Transcription factor AP1 [6] = molecular target: T1, Transcription factor AP1; assay: as §2; format: cell-based

T2 sequence (P05412 whole entry): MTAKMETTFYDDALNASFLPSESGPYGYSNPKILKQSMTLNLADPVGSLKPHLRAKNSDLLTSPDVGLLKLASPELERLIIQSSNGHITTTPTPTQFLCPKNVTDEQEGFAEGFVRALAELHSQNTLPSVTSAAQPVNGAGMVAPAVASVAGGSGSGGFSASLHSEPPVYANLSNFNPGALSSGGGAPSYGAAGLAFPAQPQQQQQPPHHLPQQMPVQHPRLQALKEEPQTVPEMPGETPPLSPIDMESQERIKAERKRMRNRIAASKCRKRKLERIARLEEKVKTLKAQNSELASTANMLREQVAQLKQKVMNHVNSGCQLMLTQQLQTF
T2 sequence (P01100 whole entry): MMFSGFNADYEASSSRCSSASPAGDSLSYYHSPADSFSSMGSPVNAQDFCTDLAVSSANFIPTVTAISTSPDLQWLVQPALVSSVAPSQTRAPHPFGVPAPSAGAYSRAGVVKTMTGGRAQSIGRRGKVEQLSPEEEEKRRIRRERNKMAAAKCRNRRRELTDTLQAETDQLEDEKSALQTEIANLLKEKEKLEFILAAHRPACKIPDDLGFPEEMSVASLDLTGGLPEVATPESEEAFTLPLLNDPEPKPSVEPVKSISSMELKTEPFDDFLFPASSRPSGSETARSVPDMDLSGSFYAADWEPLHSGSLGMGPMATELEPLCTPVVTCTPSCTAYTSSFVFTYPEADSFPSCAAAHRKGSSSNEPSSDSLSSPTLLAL
T1 sequence (P05412 whole entry): as the sequence (P05412 whole entry) above
T1 sequence (P01100 whole entry): as the sequence (P01100 whole entry) above

| Compound | pIC50 (Transcription factor AP1 [1]) | inhibition (Transcription factor AP1 [2]) [%] | inhibition (Transcription factor AP1 [3]) [%] | pIC50 (Transcription factor AP1 [4]) | pIC50 (Transcription factor AP1 [5]) | pIC50 (Transcription factor AP1 [6]) |
| --- | --- | --- | --- | --- | --- | --- |
| CC(C)COc1ccc(C(=O)c2cccc(CCC(=O)O)c2)cc1 | < 2.70 | 14 | 10 |  |  |  |
| CC(C)CCC=C1CCC2(CC1)SC[C@@H](C(=O)O)N2C(=O)CCC(C)C (stereo partly drawn) |  |  |  | 3.19 | 4.93 |  |
| CC(C)COc1ccc(C(=O)c2ccc(OCc3ccccc3)cc2)cc1CCC(=O)O |  |  | 45 |  |  |  |
| CC(C)COc1ccc(C(=O)c2ccc(OCC(C)C)cc2)cc1 |  |  | 3 |  |  |  |
| CC(C)COc1ccc(C(=O)c2ccc(OCc3ccccc3)c(CCC(=O)O)c2)cc1 | 3.38 | 97 | 51 |  |  |  |
| CC(C)CC=C1CCC2(CC1)SC[C@@H](C(=O)O)N2C(=O)CCCC(C)C (stereo partly drawn) |  |  |  | 3.34 | 4.88 |  |
| CCCOc1ccc(C(=O)c2ccc(OCC(C)C)cc2)cc1CCC(=O)O | 3.04 | 55 | 26 |  |  |  |
| CC(C)COc1cccc(C(=O)c2ccc(OCC(C)C)c(CCC(=O)O)c2)c1 | 3.22 |  |  |  |  | 5.24 |
| CC(C)COc1ccc(C(=O)c2ccc(OCC(C)C)c(CCC(=O)O)c2)cc1 | 3.21 | 91 | 28 |  |  | 5.30 |
| CC(C)COc1ccc(C(=O)c2ccccc2)cc1CCC(=O)O | < 2.70 | 9 | 7 |  |  |  |
| CCCOc1ccc(C(=O)c2ccc(OCC(C)C)c(CCC(=O)O)c2)cc1 | 3.03 | 42 | 25 |  |  |  |
| CC(C)COc1ccc(C(=O)c2ccc(OCC(C)C)c(CCC(N)=O)c2)cc1 |  |  | 5 |  |  |  |
